In brackets after ≈: the same amount, converted by molar mass.
How the values were obtained:
HeLa cells = experiment: Anti-proliferative activity in HeLa cell line (MTT assay); format: cell-based; settings: Homo sapiens, 96 h, 4 days, mean of two repeated assays
Method: (§1) HeLa cells (ATCC, USA), which are a human cervical cancer cell line, were dispensed into a 96-well plate at 2×10^3 cells/well, and the cells were treated with DMSO or the indole derivatives of the present invention, and then allowed to grow for 4 days. And then, MTT (3-(4,5-Dimethylthiazol-2-yl)-2,5-diphenyltetrazolium bromide) reagent was added to the wells at 10 μl/well. After 2 hours, the absorbance was measured at “OD 450” and statistical values were obtained using the plizm6 program. The data represent mean values of the results of two repeated assays (Table 1).

A431 [1] = experiment: Anti-proliferative activity in other cancer cell lines (MTT assay); format: cell-based; settings: Homo sapiens, A-431, 96 h, A431 (skin), 4 days, mean of three assays
Method: as §1
(§2) Specifically, various cancer cell lines were cultured on a microtiter plate (1-3×10^3 cells/well), and the cells were treated with the indole derivative of the present invention and cultured for 4 days. Cytotoxicity was examined by the MTT assay by the same method as in Experimental Example 1-1, and the IC50 was obtained by the log-dose response curve. The data represent mean values of the results of three repeated assays (Table 2).

HepG2 = experiment: as above; format: cell-based; settings: Homo sapiens, 96 h, HepG2 (liver), 4 days, mean of three assays
Method: as §1, §2

MCF7 = experiment: as above; format: cell-based; settings: Homo sapiens, 96 h, MCF7 (breast), 4 days, mean of three assays
Method: as §1, §2

SNU 484 = experiment: as above; format: cell-based; settings: 96 h, SNU 484 (stomach), 4 days, mean of three assays
Method: as §1, §2

A431 [2] = experiment: Effect on cell cycle progression (propidium iodine, FACS); format: cell-based, human; settings: A431, 17 hours
Method: (§3) Several cancer cell lines were cultured on a 12 well plate (3×10^4 cells/well), and treated with DMSO or WCI-1031, an indole derivative of the present invention, for 17 hours, and then added with a propidium iodine dye to stain the cellular DNA, and subjected to measurement using FACS. The concentrations at which cells gathered in the G2/M phase and numbers of the cells represented as percentages were shown (Table 5).

HeLa = experiment: as above; format: cell-based, human; settings: 17 hours
Method: as §3

[3] = system: human-derived skin cancer cell line (A431); experiment: Anti-cancer effect in human-derived skin cancer cell (A431) implantation nude mouse model; format: in vivo, BALB/C female nude mouse; settings: for tumor growth inhibition: days 0-23, last day (day 23), vs solvent control; for tumor weight reduction: excised A431 tumors weighed
Method: The human cancer cell line A431 which was kept frozen in liquid nitrogen was thawed and cell culture was conducted. Cells were cultured in a CO2 incubator (Forma, USA) at 37° C. and 5% CO2 for an appropriate period of time. On the last day of culture, all cancer cells were collected and counted and the cell concentration was adjusted to 1×10^7 cells/ml using serum free media. The culture solution thus prepared was injected subcutaneously in the axillary region between the scapula and chest wall in an amount of 0.3 ml per BALB/C female nude mouse (5 weeks old, Nara Biotech) (3×10^6 cells/mouse). […] To examine the toxicity levels of the repeated intraperitoneal administration of WCI-1031 to A431 cancer cell implantation nude mice, general symptoms and weight changes of the animals were observed during the administration period. […] On day 23 after the start of the drug administration, blood was taken from the mice through ophthalmic veins 2 hours after the last administration, and the mice were sacrificed using CO2 gas. Then the mice were photographed and the tumors was isolated and weighed in a chemical balance. After taking photographs, each tumor was divided in half, and the resultant tumors were fixed to liquid nitrogen and formalin, respectively.

[4] = Stability in blood plasma after intravenous injection; format: in vivo; settings: plasma concentration over time (FIG. 7)
Method: In order to examine the stability of the indole derivative of the present invention in vivo, the compound of Example 1 (WCI-1031) was injected intravenously and the plasma concentration was observed over time (FIG. 7).

[5] = Solubility in phosphate buffer; format: physicochemical; settings: aqueous buffer, thermodynamic from solid
Method: In order to examine the solubility of the indole derivative of the present invention, the solubility of the compound of Example 1 (WCI-1031) was examined at pH 6.5 or pH 7.4.
Specifically, a solid sample (˜1 mg) of the test substance was placed on Whatman Syringeless filter (PVDF membrane, 0.45 μm pore size) and mixed with 0.5 ml of a phosphate buffer (pH 6.5 or 7.4). The mixture was sonicated for 15 minutes and vortexed for 1 hour at room temperature. The equilibrated mixture was filtered and the filtrate was analyzed with a multi-wavelength UV plate reader (FIGS. 8 and 9).

[6] = Maximum absorbable dose in human (Table 6); settings: for MAD (maximum absorbable dose in human): SIWV 250 ml, SITT 270

Compound: COC(=O)Cn1c(C)c(/C=N/NC(=O)c2cc3c(ccc4ccccc43)o2)c2ccccc21 [WCI-1031, methyl (E)-2-(2-methyl-3-((2-(naphtho[2,1-b]furan-2-carbonyl) hydrazono)methyl)-1H-indole-1-yl)acetate]
- IC50 (HeLa cells): 653 nM
- IC50 (A431 [1]): 186 nM
- IC50 (HepG2): 2400 nM
- IC50 (MCF7): 1320 nM
- IC50 (SNU 484): 493 nM
- effect μM (concentration at which cells gathered in the G2/M phase) (A431 [2]): 0.5 µM
- % of G2/M (A431 [2]; at the effect concentration): 66.32%
- effect μM (concentration at which cells gathered in the G2/M phase) (HeLa): 0.5 µM
- % of G2/M (HeLa; at the effect concentration): 82.36%
- tumor growth inhibition ([3]; 10 mg/kg): 9.3%
- tumor weight reduction ([3]; 10 mg/kg): 10.7%
- tumor growth inhibition ([3]; 20 mg/kg, p<0.001): 37.2%
- tumor weight reduction ([3]; 20 mg/kg, p<0.001): 38.0%
- stability in the blood plasma [4]: excellent
- solubility at 1 h ([5]; phosphate buffer pH 6.5, room temperature): 0.9 µg/mL (≈ 2.05 µM)
- solubility at 1 h ([5]; phosphate buffer pH 7.4, room temperature): 0.4 µg/mL (≈ 0.91 µM)
- Ka (intestinal absorption rate constant) ([6]; pH 6.5): 0.03 min⁻¹
- MAD (maximum absorbable dose in human) ([6]; pH 6.5): 1.8 mg
- Ka (intestinal absorption rate constant) ([6]; pH 7.4): 0.03 min⁻¹
- MAD (maximum absorbable dose in human) ([6]; pH 7.4): 0.8 mg
